Experimental findings from ChEMBL document CHEMBL1909046, “DrugMatrix in vitro pharmacology data” are described below.

Molecules are shown by their SMILES.

For assay [1], the target named is T1, C-C chemokine receptor type 4 (Homo sapiens, UniProt P51679). Further: in other assays of this panel Not Active means under 50% inhibition at 10 µM.
T1 sequence (P51679 whole entry): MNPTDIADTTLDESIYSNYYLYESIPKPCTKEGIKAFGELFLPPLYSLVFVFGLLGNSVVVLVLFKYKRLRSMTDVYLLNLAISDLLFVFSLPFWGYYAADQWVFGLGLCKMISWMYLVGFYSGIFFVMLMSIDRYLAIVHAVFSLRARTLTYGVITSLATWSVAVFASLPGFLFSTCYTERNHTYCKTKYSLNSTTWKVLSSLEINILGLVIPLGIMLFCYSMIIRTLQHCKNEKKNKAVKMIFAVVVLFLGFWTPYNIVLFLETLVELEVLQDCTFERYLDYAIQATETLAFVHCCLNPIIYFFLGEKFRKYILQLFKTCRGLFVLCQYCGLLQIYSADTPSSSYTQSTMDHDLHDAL
It counts as cell membranes, Chem-1, Membrane. The settings on record: chem-1.

Assay [2] is described as follows: DRUGMATRIX: Phosphodiesterase PDE4 enzyme inhibition (substrate: [3H]cAMP + cAMP). The note with it: u-937; Not Active = under 50% inhibition at 10 µM.
In assay [3] the target is Matrix metalloproteinase-9 (Homo sapiens, UniProt P14780). Kind of assay: biochemical. It counts as cell-based.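 Further: inhibition of isolated MMP-9 enzyme activity toward a synthetic peptide substrate, from the DrugMatrix protease screening panel; in other assays of this panel Not Active means under 50% inhibition at 10 µM.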
Assay [4] addresses T2, Interstitial collagenase (Homo sapiens, UniProt P03956).
T2 sequence (P03956 whole entry): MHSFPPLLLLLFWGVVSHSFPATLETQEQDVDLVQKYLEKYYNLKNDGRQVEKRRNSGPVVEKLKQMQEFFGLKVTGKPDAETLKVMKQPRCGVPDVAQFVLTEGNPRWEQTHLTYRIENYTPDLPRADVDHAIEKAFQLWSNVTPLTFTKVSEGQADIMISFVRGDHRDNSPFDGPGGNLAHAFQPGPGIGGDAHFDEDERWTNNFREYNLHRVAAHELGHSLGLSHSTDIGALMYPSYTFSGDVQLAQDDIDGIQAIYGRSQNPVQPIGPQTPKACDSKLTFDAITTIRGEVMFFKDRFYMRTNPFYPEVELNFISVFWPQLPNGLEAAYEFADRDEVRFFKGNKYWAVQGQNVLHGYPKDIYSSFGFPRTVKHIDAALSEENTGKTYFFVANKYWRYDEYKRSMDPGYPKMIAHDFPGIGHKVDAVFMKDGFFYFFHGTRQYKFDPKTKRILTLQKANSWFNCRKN
Nature of the assay: biochemical. It counts as tissue-based, Rheumatoid synovial fibroblasts.

Assay [5] has as its target 5-hydroxytryptamine receptor 2B (Homo sapiens, UniProt P41595). It counts as cell membranes, CHO-K1, Membrane. The note with it: for Ki: read-out: Ki. On all read-outs here: in other assays of this panel Not Active means under 50% inhibition at 10 µM.
In assay [6] the target is T3, Leukotriene C4 synthase (Cavia porcellus, UniProt A6XA80).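 Further: enzyme inhibition assay of leukotriene C4 synthase, using LTA4 as the substrate; in other assays of this panel Not Active means under 50% inhibition at 10 µM.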
T3 sequence (A6XA80 whole entry): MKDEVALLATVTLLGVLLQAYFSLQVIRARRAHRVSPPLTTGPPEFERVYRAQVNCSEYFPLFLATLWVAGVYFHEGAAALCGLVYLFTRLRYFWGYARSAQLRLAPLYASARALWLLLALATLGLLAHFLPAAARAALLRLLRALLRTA
It counts as tissue-based, Lung.

In general, IC50 refers to the concentration that gives 50% inhibition. As usually defined, the Ki is the dissociation constant of the complex between target and ligand, obtained from inhibition or displacement.

5-hydroxytryptamine receptor 2B, sequence (P41595 whole entry): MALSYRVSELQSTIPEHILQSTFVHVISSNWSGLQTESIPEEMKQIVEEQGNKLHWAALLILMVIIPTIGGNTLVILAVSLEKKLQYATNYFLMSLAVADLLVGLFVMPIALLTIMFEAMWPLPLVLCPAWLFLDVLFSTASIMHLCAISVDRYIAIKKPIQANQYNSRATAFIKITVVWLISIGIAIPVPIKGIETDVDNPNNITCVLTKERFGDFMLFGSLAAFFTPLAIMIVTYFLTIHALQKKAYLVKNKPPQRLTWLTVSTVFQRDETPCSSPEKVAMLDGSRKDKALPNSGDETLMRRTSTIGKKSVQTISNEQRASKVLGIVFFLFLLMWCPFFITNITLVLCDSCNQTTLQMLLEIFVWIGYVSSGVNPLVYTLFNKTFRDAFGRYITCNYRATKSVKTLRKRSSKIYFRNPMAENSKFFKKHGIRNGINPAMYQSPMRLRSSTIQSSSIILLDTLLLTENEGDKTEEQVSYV
Matrix metalloproteinase-9, sequence (P14780 whole entry): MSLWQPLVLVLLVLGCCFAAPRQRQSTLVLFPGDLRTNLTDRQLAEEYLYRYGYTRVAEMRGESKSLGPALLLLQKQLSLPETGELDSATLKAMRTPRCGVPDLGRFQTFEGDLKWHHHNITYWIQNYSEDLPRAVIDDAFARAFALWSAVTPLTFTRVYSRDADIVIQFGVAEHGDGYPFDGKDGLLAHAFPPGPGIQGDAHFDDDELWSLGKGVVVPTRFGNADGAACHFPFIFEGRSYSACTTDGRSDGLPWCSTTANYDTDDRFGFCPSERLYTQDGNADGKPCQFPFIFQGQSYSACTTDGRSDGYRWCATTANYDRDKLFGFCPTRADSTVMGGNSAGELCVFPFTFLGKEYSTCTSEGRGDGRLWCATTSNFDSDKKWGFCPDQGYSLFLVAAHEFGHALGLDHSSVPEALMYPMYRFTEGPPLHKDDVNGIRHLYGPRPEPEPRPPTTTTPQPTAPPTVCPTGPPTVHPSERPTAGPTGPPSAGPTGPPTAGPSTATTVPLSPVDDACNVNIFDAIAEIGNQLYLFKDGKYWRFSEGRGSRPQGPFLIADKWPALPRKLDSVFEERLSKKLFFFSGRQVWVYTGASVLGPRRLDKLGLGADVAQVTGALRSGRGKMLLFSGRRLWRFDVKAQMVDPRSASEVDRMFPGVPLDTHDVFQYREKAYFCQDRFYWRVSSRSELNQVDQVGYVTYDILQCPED

For the compound `C[C@H]1O[C@@H](O[C@H]2[C@@H](O)C[C@H](O[C@H]3[C@@H](O)C[C@H](O[C@H]4CC[C@@]5(C)[C@H](CC[C@@H]6[C@@H]5C[C@@H](O)[C@]5(C)[C@@H](C7=CC(=O)OC7)CC[C@]65O)C4)O[C@@H]3C)O[C@@H]2C)C[C@H](O)[C@@H]1O` [DIGOXIN], the concentration for half-maximal inhibition (IC50) entry in assay [1], in assay [2], in assay [3], in assay [4], in assay [5] (cho-k1) and in assay [6] was “Not Active” in each case. For the same compound, the inhibitory constant (Ki) entry in assay [2] was “Not Active”.
For the compound `CC(C)[C@@]1(NC(=O)[C@@H]2C[C@@H]3c4cccc5[nH]cc(c45)C[C@H]3N(C)C2)O[C@@]2(O)[C@@H]3CCCN3C(=O)[C@H](Cc3ccccc3)N2C1=O.CS(=O)(=O)O` [DIHYDROERGOCRISTINE MESYLATE], the IC50 entry in assay [1] is “Not Active”; in assay [2], “Not Active”; in assay [3] it was “Not Active”; in assay [4], “Not Active”; in assay [5] (read-out: IC50), 6.6 nM; in assay [6] it was “Not Active”. Also, the Ki result in assay [2] was “Not Active”; in assay [5] it was 4.2 nM.
For the compound `CC(=O)O[C@@]12CO[C@@H]1C[C@H](O)[C@@]1(C)C(=O)[C@H](O)C3=C(C)[C@@H](OC(=O)[C@H](O)[C@@H](NC(=O)OC(C)(C)C)c4ccccc4)C[C@@](O)([C@@H](OC(=O)c4ccccc4)[C@H]21)C3(C)C.O.O.O` [DOCETAXEL], the half-inhibitory concentration (IC50) result in assay [1], in assay [2], in assay [3], in assay [4], in assay [5] (cho-k1) and in assay [6] was “Not Active” each time. The Ki result in assay [2] was “Not Active”.
Turning to `C[C@H]1c2cccc(O)c2C(=O)C2=C(O)[C@]3(O)C(=O)C(C(N)=O)=C(O)[C@@H](N(C)C)[C@@H]3[C@@H](O)[C@@H]21.O` [DOXYCYCLINE], the IC50 entry in assay [1], in assay [2], in assay [3], in assay [4], in assay [5] (cho-k1) and in assay [6] was “Not Active” in each case. For the same compound, the Ki entry in assay [2] is reported as “Not Active”.
For `O=C(CCCN1CC=C(n2c(=O)[nH]c3ccccc32)CC1)c1ccc(F)cc1` [DROPERIDOL], the IC50 entry was “Not Active” in assay [1]; “Not Active” in assay [2]; “Not Active” in assay [3]; “Not Active” in assay [4]; 1340 nM in assay [5] (read-out: IC50); “Not Active” in assay [6]. The results for the inhibitory constant (Ki) entry in assay [2] and in assay [5] were “Not Active” and 854 nM, respectively.
Turning to `CC(C)[C@H]1C(=O)N2CCC[C@H]2[C@]2(O)O[C@](NC(=O)[C@@H]3C=C4c5cccc6[nH]cc(c56)C[C@H]4N(C)C3)(C(C)C)C(=O)N12` [ERGOCORNINE], the IC50 result in assay [1] is “Not Active”; in assay [2], “Not Active”; in assay [3], “Not Active”; in assay [4] it was “Not Active”; in assay [5] (read-out: IC50) it was 11 nM; in assay [6] it was “Not Active”. Further, the values for the Ki entry in assay [2] and in assay [5] were “Not Active” and 6.86 nM, respectively.
As to `OC(Cn1cncn1)(Cn1cncn1)c1ccc(F)cc1F` [FLUCONAZOLE], the IC50 entry in assay [1], in assay [2], in assay [3], in assay [4], in assay [5] (cho-k1) and in assay [6] was “Not Active” in each case. In addition, in assay [2], the inhibitory constant (Ki) entry is “Not Active”.
For the compound `CC(C)C(=O)Nc1ccc([N+](=O)[O-])c(C(F)(F)F)c1` [FLUTAMIDE], the IC50 result in assay [1], in assay [2], in assay [3], in assay [4], in assay [5] (cho-k1) and in assay [6] was “Not Active” in each case. In addition, in assay [2], the Ki entry is “Not Active”.
As for `N=C(N)NCCN1CCCCCCC1` [GUANETHIDINE], the IC50 result in assay [1], in assay [2], in assay [3], in assay [4], in assay [5] (cho-k1) and in assay [6] was “Not Active” each time. The Ki result in assay [2] is recorded as “Not Active”.
Take `CC1(C)O[C@@H]2C[C@H]3[C@@H]4CCC5=CC(=O)CC[C@]5(C)[C@@]4(F)[C@@H](O)C[C@]3(C)[C@]2(C(=O)CCl)O1` [HALCINONIDE]: the IC50 entry in assay [1], in assay [2], in assay [3], in assay [4], in assay [5] (cho-k1) and in assay [6] was “Not Active” in each case. For the same compound, in assay [2], the inhibition constant Ki entry is given as “Not Active”.
On to `O=c1[nH]c(=O)n([C@H]2C[C@H](O)[C@@H](CO)O2)cc1I` [IDOXURIDINE], for which the IC50 entry in assay [1], in assay [2], in assay [3], in assay [4], in assay [5] (cho-k1) and in assay [6] was “Not Active” each time. In addition, in assay [2], the inhibition constant (Ki) entry is reported as “Not Active”.
On to `CC1Cc2ccccc2N1NC(=O)c1ccc(Cl)c(S(N)(=O)=O)c1` (stereo not given) [INDAPAMIDE], for which the IC50 entry in assay [1], in assay [2], in assay [3], in assay [4], in assay [5] (cho-k1) and in assay [6] was “Not Active” each time. The Ki result in assay [2] is given as “Not Active”.
For `Nc1nc(N)nc(-c2cc(Cl)ccc2Cl)n1.O=C(O)/C=C\C(=O)O` [IRSOGLADINE MALEATE], the IC50 result in assay [1], in assay [2], in assay [3], in assay [4], in assay [5] (cho-k1) and in assay [6] was “Not Active” throughout. In assay [2], the inhibition constant (Ki) result is reported as “Not Active”.
As for `CCC(C)n1ncn(-c2ccc(N3CCN(c4ccc(OCC5COC(Cn6cncn6)(c6ccc(Cl)cc6Cl)O5)cc4)CC3)cc2)c1=O` (stereo not given) [ITRACONAZOLE], the half-inhibitory concentration (IC50) result in assay [1], in assay [2], in assay [3], in assay [4], in assay [5] (cho-k1) and in assay [6] was “Not Active” each time. Moreover, the inhibition constant (Ki) result in assay [2] is reported as “Not Active”.
Turning to `CCCCN1CCCC[C@H]1C(=O)Nc1c(C)cccc1C` [LEVOBUPIVACAINE], the IC50 entry in assay [1], in assay [2], in assay [3], in assay [4], in assay [5] (cho-k1) and in assay [6] was “Not Active” in each case. Also, the inhibitory constant (Ki) result in assay [2] is recorded as “Not Active”.
Take `CCCCc1nc(Cl)c(CO)n1Cc1ccc(-c2ccccc2-c2nnn[nH]2)cc1` [LOSARTAN]: the IC50 result in assay [1], in assay [2], in assay [3], in assay [4], in assay [5] (cho-k1) and in assay [6] was “Not Active” throughout. In assay [2], the inhibition constant Ki result was “Not Active”.
In the case of `Sc1ncnc2nc[nH]c12` [MERCAPTOPURINE ANHYDROUS], the 50% inhibitory concentration (IC50) entry in assay [1], in assay [2], in assay [3], in assay [4], in assay [5] (cho-k1) and in assay [6] was “Not Active” in each case. For the same compound, the Ki result in assay [2] was “Not Active”.
Turning to `C[C@](N)(Cc1ccc(O)c(O)c1)C(=O)O` [METHYLDOPA], the IC50 result in assay [1], in assay [2], in assay [3], in assay [4], in assay [5] (cho-k1) and in assay [6] was “Not Active” in each case. For the same compound, in assay [2], the Ki entry was “Not Active”.
Consider `C[C@]12CCC(=O)C=C1CC[C@@H]1[C@@H]2CC[C@@]2(C)[C@H]1CC[C@]2(C)O` [METHYLTESTOSTERONE], for which the IC50 entry in assay [1], in assay [2], in assay [3], in assay [4], in assay [5] (cho-k1) and in assay [6] was “Not Active” each time. Also, the Ki result in assay [2] is on record as “Not Active”.
For `Cc1ccccc1N1C(=O)c2cc(S(N)(=O)=O)c(Cl)cc2NC1C` (stereo not given) [METOLAZONE], the IC50 result in assay [1], in assay [2], in assay [3], in assay [4], in assay [5] (cho-k1) and in assay [6] was “Not Active” throughout. Also, the inhibition constant Ki result in assay [2] is “Not Active”.
As to `COCCc1ccc(OCC(O)CNC(C)C)cc1` (stereo not given) [METOPROLOL], the half-maximal inhibitory concentration (IC50) result in assay [1], in assay [2], in assay [3], in assay [4], in assay [5] (cho-k1) and in assay [6] was “Not Active” in each case. Further, the Ki result in assay [2] is on record as “Not Active”.
